Experimental data taken from US5494930A, “Caribenolide I” (priority 1994, dated 1996).
Values joined by “and” are separate entries in the source; they are usually repeats but may differ in a detail not shown here. Equal values may be shown once.

Tests used:
[1] = In vivo antitumor activity, i.v. implanted P388 mouse leukemia (distal site); conditions: mouse, in vivo, iv; P388 i.v.; qd 1-5, i.v.; read-out: maximum tolerated dose (MTD)
Protocol: (§1) For in vivo evaluation of antitumor activity 1×10^6 P388 mouse leukemia cells were implanted in the intraperitoneal (i.p.) cavity or injected intravenously (i.v.) into (BALB/c ×DBA/2)F1 (CDF1) or (C57/BL6×DBA/2)F1 (BDF1) mice (Roseet al., 1983). Compound (1) was dissolved in DMSO and diluted with saline to the desired concentrations. Injection of Compound (1) was by the i.p. or i.v. route beginning on the first day after tumor implantation and consecutively every day for five treatments (qldX5:1). Increases in lifespan were reflected by the median survival time of treated (T) versus control (C) groups for which a % T/C was calculated. When antitumor activity was evaluated in M109 mouse lung .tumors, 0.2 ml of a 2.0% brei was implanted subcutaneously (s.c.) in CDF1 mice (Rose, 1981). The treatment schedule was one injection per day for days 4-8 after tumor implantation. Results are expressed as % T/C. Tumor growth inhibition was determined by calculating the relative median times for T and C mice to reach a 1 g size. Tumor weights were interchangeable with tumor size on the basis of 1 mm^3 =1 mg. The activity criterion for tumor growth inhibition (T-C) was approximately equal to a T-C of 4 days. Depending on the tumor volume doubling time for the M109 tumors in control mice, this amount of delay in tumor growth is consistent with about one log of cell kill. For both P388 and M109 tumor models, a T/C of […] was considered an active result.
(§2) Initial testing was done versus i.p. implanted P388 mouse leukemia. An optimal dose of 0.03 mg/kg/inj given i.p. produced a 50% increase in lifespan (150% T/C). In addition, Compound (1) was evaluated in two distal site models; i.v. implanted P388 or s.c. implanted M109 in which Compound (1) was given by i.v. injection.

P388 mouse leukemia [2] = experiment: as above
Protocol: as §1, §2

[3] = test system: human colon carcinoma cell line HCT 116; experiment: In vitro cytotoxicity assay (XTT); type: cell-based
Protocol: Cytotoxicity for the pure compound was assessed in several HCT116 cell lines by XTT (2,3-bis(2-methoxy-4-nitro-5-sulfophenyl)-5-[(phenylamino)carbonyl]-2H-tetrazolium hydroxide assay (Scudiero, 1988). Cells were seeded at 4000 cells/well in 96 well microtiter plates. 24 hrs later drugs were added and serial diluted. The cells were incubated at 37° C. for 72 hrs at which time the tetrazolium dye, XTT, was added. A dehydrogenase enzyme in live cells reduces the XTT to a form that absorbs light at 450 nm and which can be quantitated spectrophotometrically. The greater the absorbance the greater the number of live cells. The results are expressed as an IC50 which is the drug concentration required to inhibit cell proliferation (i.e. absorbance at 450 nm) to 50% of that of untreated control cells.

M109 mouse lung tumors = experiment: In vivo antitumor activity, s.c. implanted M109 mouse lung tumor (distal site)
Protocol: as §1, §2

P388 mouse leukemia [4] = experiment: In vivo antitumor activity, i.p. implanted P388 mouse leukemia
Protocol: as §1, §2

C=C1C(O)CC(=O)C(C)C=C(C)CC(O)C2(O)OC(CCC2O)CC2CCC(O2)C(CCCC)OC(=O)C(C)C(O)C2OC12 (stereo not shown) [Compound (1), caribenolide I]
MTD [1]: 0.064 mg/kg
increase in life span (in words) (P388 mouse leukemia [2]; P388 i.v., doses up to MTD 0.064 mg/kg/inj, i.v.): did not increase the life span
MST, % T/C (median survival time treated vs control) (P388 mouse leukemia [2]; iv, 0.064 mg/kg): 107%
cytotoxicity in vitro (in words) [3]: potent cytotoxicity
IC50 ([3]; human colon carcinoma HCT 116, XTT, 72 hrs): 1.6 nM
MST, % T/C (median survival time treated vs control) (M109 mouse lung tumors; 0.060/0.120 mg/kg/inj, qd 4-8, i.v.): 128%
T-C (tumor growth delay) (M109 mouse lung tumors; 0.060/0.120 mg/kg/inj, qd 4-8, i.v., time to 1 g size): 1.3 days
distal site activity (in words) (M109 mouse lung tumors; i.v. dosing): no meaningful distal site activity
OD, first printed value (M109 mouse lung tumors; qd 4-8, i.v.): 0.060 mg/kg/inj
OD, second printed value (M109 mouse lung tumors; qd 4-8, i.v.): 0.120 mg/kg/inj
optimal dose (OD) (P388 mouse leukemia [4]; P388 i.p., qd 1-5, i.p.): 0.03 mg/kg/inj and 0.030 mg/kg/inj
MST, % T/C (median survival time treated vs control) (P388 mouse leukemia [4]; ip, 0.03 mg/kg): 150%
increase in lifespan (P388 mouse leukemia [4]; ip, 0.03 mg/kg): 50%
